This note sets out measurements from patent US20200190101A1, “Composition Containing Novel Glutamic Acid Derivative And Block Copolymer, And Use Thereof” (Nippon Kayaku Kabushiki Kaisha, priority 2015, published 2020).

Data set [1] deals with Human renal cell cancer OS-RC-2. Kind of data set: Test on antitumor effect of Example 6, OS-RC-2. It is filed as in vivo, nude mice. Conditions: 20 mg/kg in terms of epirubicin, i.v. once. On the procedure:
Human renal cell cancer OS-RC-2 was transplanted into nude mice similarly to Test Example 15, and after tumor engraftment was confirmed, the composition of Example 6 according to the present invention was dissolved in 5% glucose. The solution was intravenously administered through the caudal vein once at a dose of 10 or 20 mg/kg in terms of epirubicin. Furthermore, as a control drug, epirubicin hydrochloride was dissolved in a physiological solution, and the solution was intravenously administered through the caudal vein once at a dose of 10 or 20 mg/kg in terms of epirubicin.
(§1) After the administration, the major axis (L) and the minor axis (W) of a tumor were measured using calipers at an interval of 2 to 3 days, the tumor volume was calculated by the formula: (L×W^2)/2, and the tumor volume change rate from the administration initiation day was determined.

The test system of data set [2] is γ-glutamyl transpeptidase (GGT). Kind of data set: γ-Glutamyl transpeptidase (GGT) enzyme recognition test. The class given is biochemical. Conditions: 0.34 mg/mL DMSO solution diluted with PBS + 0.227 mg/mL GGT solution, 37° C. As to the method: To 0.150 mL of this doxorubicin-bonded glutamic acid derivative (prodrug) PBS solution, 0.150 mL of a 2 U/mL GGT solution obtained by dissolving GGT (0.22 mg, 8 U/mg) (Sigma-Aldrich Company) in PBS (0.880 mL) was added, and the mixture was allowed to react at 37° C.
The reaction liquid was analyzed by HPLC, and thus the residual ratio of the doxorubicin-bonded glutamic acid derivative (prodrug) and the production ratio of doxorubicin were determined.
To 0.100 mL of the doxorubicin-bonded glutamic acid derivative PBS solution, 0.100 mL of a 2 U/mL GGT solution obtained by dissolving GGT (0.38 mg, 8 U/mg) (Sigma-Aldrich Company) in PBS (1.520 mL) was added, and the mixture was allowed to react at 37° C. […]

The nature of data set [3]: Phosphate buffered physiological saline (PBS) solution stability test. The class given is physicochemical. Conditions: PBS (DMSO stock), 37° C., after 24 hours. On the procedure: 0.148 mL of the doxorubicin-bonded glutamic acid derivative PBS solution was dissolved in 0.148 mL of a PBS solution, and the solution was allowed to react at 37° C.
PBS (0.100 mL) was added to the EHC-bonded glutamic acid derivative solution (0.100 mL), and the mixture was allowed to react at 37° C. The reaction liquid was analyzed by HPLC, and thereby the residual ratio of the EHC-bonded glutamic acid derivative was determined.
PBS (0.117 mL) was added to the camptothecin-bonded glutamic acid derivative solution (0.117 mL), and the mixture was allowed to react at 37° C. The reaction liquid was analyzed by HPLC, and thereby the residual ratio of the glutamic acid derivative was determined.
The reaction liquid was analyzed by HPLC, and thereby the residual ratio of the EHC-bonded glutamic acid derivative was determined.

The format of data set [4] is in vitro ADME. Conditions: 24 h, 0.0856 mg/mL. As to the method:
Mouse blood plasma (0.180 mL) was added to a 0.856 mg/mL DMSO solution of the EHC-bonded glutamic acid derivative of Synthesis Example 6 (0.020 mL), and the mixture was allowed to react at 37° C.
The reaction liquid was analyzed by HPLC, and thereby the residual ratio of the EHC-bonded glutamic acid derivative was determined. 94% of the EHC-bonded glutamic acid derivative prodrug remained after 24 hours.

In data set [5] the test system is OS-RC-2 cells having high GGT activity. Kind of data set: cells. The class given is cell-based, human. The following applies: Homo sapiens, OS-RC-2, read-out: Cell proliferation inhibitory activity. On the procedure:
(§2) After the cells were incubated for 6 hours, the interior of the wells was washed, and after the cells were further incubated for 3 days, the cells were immobilized with methanol and stained using Methylene Blue dye. After staining, the dye was extracted with a 0.3% aqueous solution of hydrochloric acid was extracted, and the light absorbance at 660 nm was measured. For the light absorbance thus obtained, the cell proliferation suppressive activity was evaluated based on the reduction ratio for the light absorbance measured from cells to which the compound was not added.
(§3) By a similar operation, the cell proliferation suppressive activity was evaluated from the light absorbance, using doxorubicin that was not converted to a glutamic acid derivative. The results are shown in FIG. 1 (OS-RC-2 cells having high GGT activity) and FIG. 2 (SK-OV-3 cells having low GGT activity).
(§4) The cell proliferation inhibitory activity of the EHC-bonded glutamic acid derivative according to Synthesis Example 6 was evaluated using OS-RC-2 cells (RIKEN BioResource Center), which are known to have high GGT activity, and SK-OV-3 cells (American Type Culture Collection), which are known to have low GGT activity.
(§5) On a 96-well plate, OS-RC-2 cells having high GGT activity and SK-OV-3 cells having low GGT activity were each inoculated in an amount of 4,000 cells/well and were incubated for one day at 37° C. and 5% CO2, and then the EHC prodrug according to Synthesis Example 6 was added to the cells at a final concentration of 0.0001 to 1 μM. After the cells were incubated for 6 hours, the interior of the wells was washed, and the cells were further incubated for 3 days. After the incubation, the cells were immobilized with methanol and were stained using Methylene Blue dye. After staining, the dye was extracted with a 0.3% aqueous solution of hydrochloric acid, and the light absorbance at 660 nm was measured. The cell proliferation suppressive activity was evaluated based on the reduction ratio for the light absorbance thus obtained, with respect to the light absorbance measured from cells to which the compound was not added.
(§6) By a similar operation, EHC, which was an active ingredient of Synthesis Example 6, was used without modification, and the cell proliferation suppressive activity was evaluated from the light absorbance.

In data set [6] the test system is SK-OV-3 cells having low GGT activity. Kind of data set: cells. The class given is cell-based. The following applies: Homo sapiens, SK-OV-3, read-out: Cell proliferation inhibitory activity. As to the method:
as §2, §3, §4, §5, §6

Data set [7] has as its system OS-RC-2 cells having high GGT activity. The class given is cell-based, human. The following applies: GGsTop 10 μM, compound 0.0001 to 1 μM. On the procedure: OS-RC-2 cells were inoculated by a method similar to that of Test Example 3. […] After the cells were incubated for 6 hours, the interior of the wells was washed, and after the cells were further incubated for 3 days, the cell proliferation suppressive activity was evaluated by a method similar to that of Test Example 3.
By a similar operation, the cell proliferation suppressive activity was evaluated using doxorubicin that was not glutamic acid-derivatized, from the light absorbance of the compound.
The GGT activity dependency of the cell proliferation inhibitory activity of the EHC-bonded glutamic acid derivative according to Synthesis Example 6 was evaluated using OS-RC-2 cells having high GGT activity.
OS-RC-2 cells were inoculated by a method similar to that of Test Example 10. After the cells were incubated for one day, GGsTop (Wako Pure Chemical Industries, Ltd.), which is a GGT inhibitor, was added to the cells at a final concentration of 10 μM, and the cells were incubated for one hour. Subsequently, the EHC-bonded glutamic acid derivative according to Synthesis Example 6 was added to the cells at a final concentration of 0.0001 to 1 μM. After the cells were incubated for 6 hours, the interior of the wells was washed, and after the cells were incubated for 3 days, the cell proliferation suppressive activity was evaluated by a method similar to that of Test Example 10.
By a similar operation, the cell proliferation suppressive activity was evaluated using EHC, which is the active ingredient of Synthesis Example 6, from the light absorbance of the compound.

Data set [8] in a line: Test on pharmacokinetics of Synthesis Example 6 (tissue AUC, OS-RC-2 tumor-bearing mice). Further details: species or system SCID mice. Conditions: mouse, in vivo. On the procedure: Human renal cell cancer OS-RC-2 tumors that had been subcutaneously subcultured in SCID mice were produced into blocks that measured about 2 mm on each side, and the blocks were subcutaneously transplanted into SCID mice using a trocar.
At time points of 5 minutes, 1 hour, 3 hours, and 6 hours after the administration, various tissues such as blood plasma, liver, bone marrow, and tumor were collected under ether anesthesia. The drug concentrations of EHC as an active drug of Synthesis Example 6, the unchanged drug of Synthesis Example 6, and the unchanged drug of CPT-11 in the various tissues were quantitatively analyzed by a LC-MS/MS method under the following measuring instrument and conditions.
From the concentrations of EHC, the EHC-bonded glutamic acid derivative according to Synthesis Example 6, and CPT-11 in the tissues at various time points, the AUC0-6 hr (μg·hr/mL or g) values of the various components up to 6 hours after the initiation of administration were calculated. As the prodrug activation rates of Synthesis Example 6 and CPT-11 in the various tissues, the AUC0-6 hr ratios of the active drug with respect to the unchanged drug (AUCEHC/AUCSynthesis Example 6 unchanged drug, and AUCEHC/AUCCPT-11) were determined.

The test system of data set [9] is human renal cell cancer OS-RC-2. Kind of data set: Test on antitumor effect of Synthesis Example 6, OS-RC-2. The class given is in vivo, SCID mice. The following applies: three times at an interval of 4 days. On the procedure: By an operation similar to that of Test Example 15, to those mice having human renal cell cancer OS-RC-2 transplanted thereinto, the EHC-bonded glutamic acid derivative of Synthesis Example 6 was intravenously administered through the caudal vein, on the 17th day after tumor transplantation, at a dose of 20, 40, or 80 mg/kg three times in total at an interval of 4 days.
as §1

Counter-ions that a name gives are not always drawn.

On to `COc1cccc2c1C(=O)c1c(O)c3c(c(O)c1C2=O)C[C@@](O)(C(=O)CO)C[C@@H]3O[C@H]1C[C@H](N)[C@@H](O)[C@H](C)O1` [epirubicin hydrochloride], for which the “Toxicity (death of mice)” value in data set [1] is “the mice died 8 days after the administration due to toxicity”.
On to `CCc1c2c(nc3ccc(OCc4ccc(NC(=O)CC[C@H](N)C(=O)O)cc4)cc13)-c1cc3c(c(=O)n1C2)COC(=O)[C@]3(O)CC` [Synthesis Example 6, 10-(4-((S)-4-amino-4-carboxybutanamido)benzyloxy)-7-ethylcamptothecin ditrifluoroacetate], for which the “Disappearance of the glutamic acid derivative and production of EHC by GGT” value in [2] is “rapidly disappeared in one hour of the reaction and produced EHC”. In addition, the “Residual ratio of the glutamic acid derivative in PBS” value in data set [3] was determined as 90%. Besides, in data set [4], the “Residual ratio of the glutamic acid derivative in mouse blood plasma” value was 94%. In addition, the figures for the inhibition at 0.01 µM in data set [5] and in data set [6] were 25% and 1.3%, respectively. Besides, the “Effect of GGT inhibitor on cell proliferation suppressive activity” value in [7] is on record as “inhibited the activity”. Moreover, in [8], the “Activation rate AUCEHC/AUC unchanged drug” value is 0.03-0.16 times. Besides, the “Antitumor effect (relative tumor volume)” value in data set [9] (80 mg/kg-administered group, i.v.) is “noticeable tumor regression effect”; in data set [9] (20, 40, or 80 mg/kg i.v.) it was “dose-dependent antitumor effect”.
